Marks after values point to notes of the source that are not given here.
Legend:
P. aeruginosa = assay: Rhamnolipid production assay; assay type: cell-based, Pseudomonas aeruginosa; conditions: Table 4; concentration not given
Protocol: P. aeruginosa (OD 595 nm=1.0) cultured overnight was inoculated in an AB medium (1:100) with a positive control or compound (0100 μM), and incubated using a shaking culture for 24 hours at 37° C. The cell culture was centrifuged for 5 minutes at 4° C. and 12,000 g. Rhamnolipids were extracted twice by mixing 200 μL of a supernatant and 400 μL of 100% diethyl ether (JUNSEI, Tokyo, Japan). The supernatant was transferred to a new tube and evaporated. A dried sample was eluted with 20 μL of deionized water, and reacted with 180 μL of an Orcinal solution (0.19% Orcinal (Sigma-Aldrich) in 53% H2SO4). The reaction mixture was heated for 30 minutes at 80° C., and cooled for 15 minutes at room temperature. The amount of rhamnolipids was measured at OD 421 nm, and normalized in the cell culture solution at OD 595 nm using a multimode plate reader.

Pseudomonas aeruginosa [1] = assay: Static biofilm formation assay (crystal violet); assay type: cell-based; conditions: Table 4; concentration not given
Protocol: (§1) Pseudomonas aeruginosa (P. aeruginosa) (OD 595 nm=1.0) was cultured overnight, and diluted in an AB medium (1:20; 300 mM NaCl, 50 mM MgSO4, 0.2% vitamin-free casamino acids, 10 mM potassium phosphate, 1 mM L-arginine, and 1% glucose, pH 7.5) together with a positive control or compound (0100 μM) in a borosilicate bottle. The resulting mixture was incubated without shaking at 37° C. for 24 hours, and to measure growth inhibition activity. OD 595 nm of the suspended culture was measured using a multimode plate reader. Biofilm cells attached to the bottle were washed twice with phosphate-buffered saline (PBS; 137 mM NaCl, 2.7 mM KCl, 10 mM Na2HPO4, and 2 mM KH2PO4, pH 7.2). Afterward, the remaining biofilm cells were stained with 0.1% crystal violet for 10 minutes, and to remove the unbound crystal violet, washed with deionized water. The crystal violet […] to the biofilm cells was eluted with 100% ethanol, and the OD of the eluted ethanol sample was measured at 545 nm using a multimode plate reader.

Pseudomonas aeruginosa [2] = assay: Bacterial growth under static condition (OD 595 nm of suspended culture); assay type: cell-based; conditions: Table 4; concentration not given
Protocol: as §1

RhlR = target: T1, RhlR (Pseudomonas aeruginosa, UniProt P54292); assay: cell-based; conditions: for Relative RhlR activity Antagonism: Table 2; for Relative RhlR activity Antagonism / activity at 100 µM / remaining activity at 100 µM: footnotes not given; for Relative RhlR activity Antagonism / remaining activity at 100 µM: 100 μM per Table 3, lower = stronger antagonism; for Relative RhIR activity (%) Agonism / Relative RhIR activity (%) Antagonism: Table 4, concentration not given; for activity at 100 µM: read-out: Relative RhlR activity Agonism, Table 2, matches the 100 column of Table 3; for remaining activity at 100 µM: read-out: Relative RhlR activity Antagonism, Table 2
T1 construct: expressed in transfected cells; host or cells: E. coli sdiA variant co-transformed with pJN105R and pSC11 (RhlA::lacZ)
Protocol: Escherichia coli (E. coli) DH5a includes LuxR homolog SdiA detecting endogenous AHL synthesized by other microbial species, particularly, BHL.
For RhlR reporter strain analysis, the present invention used pJN105R (RhlR expression plasmid), anspSC11 (RhlA::lacZ fusion plasmid) and an sdiA variant co-transformed with the two plasmids. 1% of an overnight-cultured reporter strain (OD 595 nm=1.0) supplemented with 10 μg/mL gentamicin and 50 μg/mL ampicillin was cultured in a Luria-Bertani (LB) medium (Difco, Detroit, Mich., USA) with a positive control or a compound (0-1000 μM) and BHL (0-10 μM) (Sigma-Aldrich) at 37° C. for 2 hours. 0.4% arabinose (Sigma-Aldrich) was reacted with the resulting product at 37° C. for 1.5 hours. β-galactosidase activity was evaluated using a Tropix plus kit (Applied Biosystems, CA, USA), and OD 595 nm and luminescence were measured using a VICTOR x5 multimode plate reader (PerkinElmer, Waltham, Mass., USA). Relative RhlR activity was quantified by measuring luminescence at OD 595 nm. In addition, for LasR reporter strain analysis, the present invention used pJN105L (LasR expression plasmid) and pSC11 (lasI::lacZ fusion plasmid), E. coli DH5a co-transformed with the two plasmids, and OdDHL (Sigma-Aldrich).

T1 sequence (P54292 whole entry): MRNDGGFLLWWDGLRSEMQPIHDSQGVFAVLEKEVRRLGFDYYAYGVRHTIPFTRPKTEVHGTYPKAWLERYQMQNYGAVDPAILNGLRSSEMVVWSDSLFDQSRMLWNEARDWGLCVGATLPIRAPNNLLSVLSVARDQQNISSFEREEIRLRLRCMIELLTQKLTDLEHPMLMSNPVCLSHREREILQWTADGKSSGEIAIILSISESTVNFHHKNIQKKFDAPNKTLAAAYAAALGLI

SMILES	Relative RhlR activity Antagonism (RhlR)	activity at 100 µM (RhlR) [%]	remaining activity at 100 µM (RhlR) [%]	further results
CCCC(O)CC(=O)/C=C/c1ccc(OC)cc1 (centres unmarked) [Compound 11f, (E)-5-Hydroxy-1-(4-methoxyphenyl)oct-1-en-3-one]	55** %	1	55	Relative biological activity (%) Rhamnolipid production (P. aeruginosa): 88%; Relative biological activity (%) Biofilm formation (Pseudomonas aeruginosa [1]): 75* %; Relative biological activity (%) Bacterial growth (Pseudomonas aeruginosa [2]): 102%; Relative RhIR activity (%) Agonism (RhlR): 1** %; Relative RhIR activity (%) Antagonism (RhlR): 55** %
CCCCC[C@H](O)C#Cc1ccc(O)c(OC)c1 [Compound 23c, (S)-4-(3-Hydroxyoct-1-yn-1-yl)-2-methoxyphenol]	34** %	3	34	Relative biological activity (%) Rhamnolipid production (P. aeruginosa): 86%; Relative biological activity (%) Biofilm formation (Pseudomonas aeruginosa [1]): 67* %; Relative biological activity (%) Bacterial growth (Pseudomonas aeruginosa [2]): 104%; Relative RhIR activity (%) Agonism (RhlR): 3** %; Relative RhIR activity (%) Antagonism (RhlR): 34** %
CCCC(O)CC(=O)/C=C/c1cccc(O)c1 (centres unmarked) [Compound 11e, (E)-5-Hydroxy-1-(3-hydroxyphenyl)oct-1-en-3-one]	78** %	2	78	–
CCCC(O)CC(=O)CCc1ccc(OC)cc1 (centres unmarked) [Compound 12f, 5-Hydroxy-1-(4-methoxyphenyl)octan-3-one]	–	2	71	–
CCCCCC(O)/C=C/c1ccc(F)c(F)c1 (centres unmarked) [Compound 15a, (E)-1-(3,4-Difluorophenyl)oct-1-en-3-ol]	–	5	55	–
CCCC(O)CC(=O)/C=C/c1ccc(F)c(OC)c1 (centres unmarked) [Compound 11q, (E)-1-(4-Fluoro-3-methoxyphenyl)-5-hydroxyoct-1-en-3-one]	43** %	1	43	–
CCCC(O)CC(=O)/C=C/c1ccccc1C (centres unmarked) [Compound 11i, (E)-5-Hydroxy-1-(o-tolyl)oct-1-en-3-one]	65** %	2	65	–
CCCC(O)CC(=O)CCc1ccc(C)cc1 (centres unmarked) [Compound 12i, 5-Hydroxy-1-(p-tolyl)octan-3-one]	–	1	76	–
CCCC(O)CC(=O)CCc1ccc(C)c(C)c1 (centres unmarked) [Compound 12p, 1-(3,4-Dimethylphenyl)-5-hydroxyoctan-3-one]	–	3	82	–
CCCC(O)CC(=O)/C=C/c1ccc(O)c(F)c1 (centres unmarked) [Compound 11m, (E)-1-(3-Fluoro-4-hydroxyphenyl)-5-hydroxyoct-1-en-3-one]	–	2	60	–
CCCCCC(O)CCc1ccc(O)c(OC)c1 (centres unmarked) [Compound 27]	45** %	2	45	–
CCCC(O)CC(=O)CCc1ccc(O)c(OC)c1 (centres unmarked) [Compound 2, 5-Hydroxy-1-(4-hydroxy-3-methoxyphenyl)octan-3-one]	54** %	3	54	–
CCCCCCCC(O)CC(=O)CCc1ccc(O)c(OC)c1 (centres unmarked) [Compound 6, 5-Hydroxy-1-(4-hydroxy-3-methoxyphenyl)dodecan-3-one]	–	2	90	–
CCCCCC(O)CCc1ccc(F)c(F)c1 (centres unmarked) [Compound 16a, 1-(3,4-Difluorophenyl)octan-3-ol]	–	5	61	–
CCCC(O)CC(=O)CCc1ccc(F)c(OC)c1 (centres unmarked) [Compound 12q, 1-(4-Fluoro-3-methoxyphenyl)-5-hydroxyoctan-3-one]	–	1	79	–
CCCC(O)CC(=O)/C=C/c1ccc(O)c(OCC)c1 (centres unmarked) [Compound 11n, (E)-1-(3-Ethoxy-4-hydroxyphenyl)-5-hydroxyoct-1-en-3-one]	–	1	91	–

SMILES	Relative RhlR activity Antagonism (RhlR)	activity at 100 µM (RhlR) [%]	remaining activity at 100 µM (RhlR) [%]	further results
CCCC(O)CC(=O)CCc1ccc(F)c(F)c1 (centres unmarked) [Compound 12o, 1-(3,4-Difluorophenyl)-5-hydroxyoctan-3-one]	–	1	49	–
CCCC(O)CC(=O)CCc1ccc(O)cc1 (centres unmarked) [Compound 12d, 5-Hydroxy-1-(4-hydroxyphenyl)octan-3-one]	–	3	64	–
CCCC(O)CC(=O)/C=C/c1ccc(Cl)cc1 (centres unmarked) [Compound 11h, (E)-1-(4-Chlorophenyl)-5-hydroxyoct-1-en-3-one]	64** %	1	64	–
CCCC(O)CC(=O)CCc1ccccc1 (centres unmarked) [Compound 12b, 5-Hydroxy-1-phenyloctan-3-one]	–	4	88	–
CCCC(O)CC(=O)/C=C/c1ccc(F)cc1 (centres unmarked) [Compound 11g, (E)-1-(4-Fluorophenyl)-5-hydroxyoct-1-en-3-one]	33** %	1	33	–
CCCC(O)CC(=O)/C=C/c1cc(F)cc(OC)c1 (centres unmarked) [Compound 11r, (E)-1-(3-Fluoro-5-methoxyphenyl)-5-hydroxyoct-1-en-3-one]	74** %	3	74	–
CCCCCC(=O)/C=C/c1ccc(O)c(OC)c1 [Compound 13b, (E)-1-(4-Hydroxy-3-methoxyphenyl)oct-1-en-3-one]	41** %	2	41	–
CCCC(O)CC(=O)CCc1ccc(Cl)cc1 (centres unmarked) [Compound 12h, 1-(4-Chlorophenyl)-5-hydroxyoctan-3-one]	–	2	69	–
CCCCCC(O)C#Cc1ccc(F)c(F)c1 (racemic) [Compound 35a, 1-(3,4-Difluorophenyl)oct-1-yn-3-ol]	–	3	74	–
CCCC(O)CC(=O)CCc1ccc(F)cc1 (centres unmarked) [Compound 12g, 1-(4-Fluorophenyl)-5-hydroxyoctan-3-one]	–	2	51	–
CCCCC[C@H](O)C#Cc1ccc(F)c(F)c1 [Compound 35c, (S)-1-(3,4-Difluorophenyl)oct-1-yn-3-ol]	–	4	67	–
CCCC[C@H](O)C#Cc1ccc(F)c(F)c1 [Compound 34c, (S)-1-(3,4-Difluorophenyl)hept-1-yn-3-ol]	–	2	64	–
CCCC(O)CC(=O)CCc1ccc(N(C)C)cc1 (centres unmarked) [Compound 12j, 1-(4-(Dimethylamino)phenyl)-5-hydroxyoctan-3-one]	–	1	74	–
CCCCC(O)C#Cc1ccc(F)c(F)c1 (racemic) [Compound 34a, 1-(3,4-Difluorophenyl)hept-1-yn-3-ol]	–	4	71	–
CCCC(O)CC(=O)CCc1ccc(O)c(F)c1 (centres unmarked) [Compound 12m, 1-(3-Fluoro-4-hydroxyphenyl)-5-hydroxyoctan-3-one]	–	1	73	–

Source: patent publication US20220289657A1, “COMPOSITION FOR PREVENTING OR TREATING BACTERIAL INFECTIOUS DISEASE COMPRISING 4-GINGEROL DERIVATIVE COMPOUND AS ACTIVE INGREDIENT” (KOREA UNIVERSITY RESEARCH AND BUSINESS FOUNDATION, SEJONG …, priority 2019, published 2022)
